From PubChem BioAssay (NCI) come the findings set out here.

What all share (test): DTP human tumour cell line panel, 48 h
Assay [1] deals with ACHN renal.
Assay [2] deals with HL-60(TB) leukemia.
For assay [3], the system named is K-562 leukemia.
For assay [4], the system named is KM12 colon.
Assay [5] deals with OVCAR-4 ovarian.
In assay [6] the test system is OVCAR-5 ovarian.
Assay [7] concerns SF-268 CNS.
Assay [8] deals with SK-OV-3 ovarian.
Assay [9] deals with SNB-75 CNS.
Assay [10] has as its system UACC-257 melanoma.

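Cells were grown in 96-well plates and exposed to each compound for 48 hours at five concentrations; endpoints were interpolated linearly between bracketing concentrations, or set to the highest concentration if not reached. Definition used: TGI = concentration required for complete inhibition of growth.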 Bounds are passed on as bounds.

`CC(Oc1ccc(Cl)cc1Cl)C(=O)NN1C(=O)CSC1c1ccccc1` (stereo not given): the concentration for total growth inhibition (TGI) in assay [1] is above 100 µM; in assay [2] it was 77.9 µM; in assay [3] it was above 100 µM; in assay [4], above 100 µM; in [5], above 100 µM; in assay [6] it was above 100 µM. In addition, the TGI in assay [7], in assay [8], in assay [9] and in assay [10] was above 100 µM throughout.

By TGI is commonly meant the concentration at which net growth stops.
